Measurements published in PMC6918103 (Advanced Science, 2019).
“And” between values parts separate entries of the source, which are not always exact repeats. Identical values can stand only once.

Tests used:
[1] = In situ recirculating intestinal perfusion (absorption rate Ka, with or without orlistat); details: rats
[2] = Simulated intestinal digestion in bile-pancreatic juice (TG prodrug remaining, MG prodrug generated); type: in vitro ADME, rat
Method: (§1) Simulated intestinal digestion
(§2) Bile-pancreatic juice was obtained from the common bile duct of anesthetized rats, which contained bile as well as pancreatic juice as previously described. Then, 20 µL of emulsion was incubated with 180 µL bile-pancreatic juice at 37°C with gentle shaking to simulate intestinal digestion. Samples (20 µL) of the incubation solution were taken at regular intervals (0, 0.08, 0.25, 0.5, 1, 2, 3 h) and added to 180 µL of ACN to analyze the concentration of the TG prodrugs and the monoglyceride derivatives of DTX (MG prodrugs) by HPLC. The solubility of prodrugs in aqueous phase were also determined. […] 20 µL of aqueous phase were collected and the concentration of the TG prodrugs and MG prodrugs were determined as above. The fraction of TG-like prodrugs and MG-like prodrugs partitioning in mix micelle phase (aqueous phase) relative to those in raw digesta were calculated to evaluate the solubility of the prodrugs. At the same time, the particle sizes of mix micelles were measured by Malvern laser particle size analyzer. […]
(§3) In order to study the stability of linkers in circulation, TG prodrugs were incubated with rat plasma supplemented with lipoprotein lipase (LPL, 10000 IU/mL) in which TG prodrugs can be hydrolyzed into MG prodrugs rapidly. […] The concentration of TG, MG prodrugs and free DTX were determined by HPLC. […]

[3] = Partition into mixed micellar phase and mixed micelle size after 3 h digestion; type: in vitro ADME; details: Sprague-Dawley, rat
Method: as §1, §2, §3

[4] = Stability of prodrugs in rat plasma supplemented with lipoprotein lipase; type: in vitro ADME; details: 12 h
[5] = Hepatic and renal function analysis; type: in vivo, female BALB/c mice; details: mice after treatment
From the text: Gastrointestinal toxicity evaluation
Nine female BALB/c mice were divided into four groups (n=3 each group) and were […]
saline (control) every day. Five days later, the mice were sacrificed and their blood was obtained for hepatic and renal function analysis. The stomach, duodenum, jejunum and ileum were taken and fixed in 4% paraformaldehyde solution for hematoxylin and eosin (H&E) staining. The histological sections were imaged using an optical microscope.
Student's t-test was used to determine significant differences between the two groups.
When p<0.05, there was a significant difference, and very significant differences between two groups were defined as p<0.01.

4T1 cells = experiment: MTT cytotoxicity in 4T1 cells; type: cell-based
KB cells = experiment: MTT cytotoxicity in KB cells; type: cell-based
Method: 4T1 cells were cultured in RPMI 1640 medium with 10% FBS and KB cells were
cultured in high glucose DMEM medium with 10% FBS. All cells were maintained in a humidified atmosphere of 5% CO 2 at 37 °C. All the cell culture plastic product were obtained from Wuxi NEST Biotechnology Co., Ltd.
In vitro cytotoxicity and drug release in tumor cell
investigated in 4T1, KB and L02 cells. In brief, cells were added to 96-wells at a density of 5000 cells per well and cultured for 24 h and then the medium was discarded.
cells were incubated with different concentrations of DTX solution or prodrug
emulsions for 48 h or 72 h and cell viability was determined by MTT assay. The cells without any treatment were utilized as control (n=3 for each group).

4T1 xenograft tumors = experiment: In vivo antitumor effect (tumor volume, tumor burden, body weight, H&E of organs); set-up: species or system female BALB/c mice; details: 4T1 tumor bearing mice; po, 20 mg kg^−1 equivalent to DTX, every alternate day for 10 days
Method: F௥௘௟ = AUCா௠௨௟௦௜௢௡ ∙Doseௌ௢௟/AUCௌ௢௟/Doseா௠௨௟௦௜௢௡
Fab = AUCp.o. ∙ Dosei.v./AUCi.v./Dosep.o.
Absorption mechanism and biodistribution of TG-mimetic prodrug
The PPa-S-S-TG was synthesized as scheme S2, the PPa-S-S-TG emulsion and its simulated intestinal digestion were implemented in accordance with the step of the TG-like DTX prodrug emulsion. Its reduction-responsibility was verified by incubation PBS with or without DTT. In brief, phosphate buffer solution (pH 7.4) (containing 30% ethanol (v/v)) with or without dithiothreitol (DTT) was used as the release media. The concentration of DTT was fixed at 10 mM. Then, 200 µL of the emulsions (PPa-S-S-TG) was incubated with 20 mL release media (reduction-sensitive or reduction-insensitive) at 37°C. At 0, 3, 12 h, 40 µL samples were taken and added to 160 µL of ACN for analysis. The content change of the PPa-S-S-TG was monitored by HPLC.
The PPa-S-S-TG and the PPa solution (10 mg/kg equivalent to PPa) were administrated to female BALB/c mice bearing the 4T1 cell line. At scheduled times the mice were sacrificed and the GITs, MLNs and tumors were taken out for fluorescence imaging by the Caliper IVIS ® Spectrum in vivo Imaging System. The intestinal tissue of PPa-S-S-TG group was then washed, fixed with 4% paraformaldehyde for 2 h, and dehydrated in 30% sucrose overnight. […]
was used as a control. […] Body weight and tumor volume were recorded every day. […]

| BUN ([5]; AVERAGE of 3 animals) [mmol/L] | CR ([5]; AVERAGE of 3 animals) [µmol/L] | Structure (SMILES) | Ka, fold increase in comparison with the DTX solution [1] [fold] | Intestinal digestion (rate) in bile-pancreatic juice [2] | Amount of MG derivative generated ([2]; Sprague-Dawley, rat, 3 h) [%] | Partition of TG-like prodrug into the micellar phase [3] | DTX released [4] [%] | ALT ([5]; AVERAGE of 3 animals) [U/L] | AST ([5]; AVERAGE of 3 animals) [U/L] | ALT ([5]; individual animal) | AST ([5]; individual animal) | BUN ([5]; individual animal) | CR ([5]; individual animal) | Cytotoxicity (IC50 values) (4T1 cells; 48 h) [µg/mL] | Cytotoxicity (IC50 values) (4T1 cells; 72 h) [µg/mL] | Cytotoxicity (IC50 values) (KB cells; 48 h) [µg/mL] | Cytotoxicity (IC50 values) (KB cells; 72 h) [µg/mL] | Tumor inhibition (4T1 xenograft tumors) |
| --- | --- | --- | --- | --- | --- | --- | --- | --- | --- | --- | --- | --- | --- | --- | --- | --- | --- | --- |
|  |  | CCCCCCCCCCCCCCCC(=O)OCC(COC(=O)CCCCCCCCCCCCCCC)OC(=O)C(CCC(=O)O[C@@H](C(=O)O[C@H]1C[C@@]2(O)[C@@H](OC(=O)c3ccccc3)[C@@H]3[C@]4(OC(C)=O)CO[C@@H]4C[C@H](O)[C@@]3(C)C(=O)[C@H](O)C(=C1C)C2(C)C)[C@@H](NC(=O)OC(C)(C)C)c1ccccc1)OC(=O)C(C)(C)C (stereo partly shown) [DTX‐5C(Piv)‐TG] | 1.15 | poorest intestinal digestion rate | 74 | about 40.2% | 10 |  |  |  |  |  |  |  |  |  |  |  |
| 8.409 | 62.3087 | CC(=O)O[C@@]12CO[C@@H]1C[C@H](O)[C@@]1(C)C(=O)[C@H](O)C3=C(C)[C@@H](OC(=O)[C@H](O)[C@@H](NC(=O)OC(C)(C)C)c4ccccc4)C[C@@](O)([C@@H](OC(=O)c4ccccc4)[C@H]21)C3(C)C [DTX i.g.] |  |  |  |  |  | 41.6037 | 150.819 | 57.9809 U/L and 28.6275 U/L and 38.2028 U/L | 129.269 U/L and 163.103 U/L and 160.084 U/L | 8.8262 mmol/L and 7.2013 mmol/L and 9.1982 mmol/L | 51.2097 µmol/L and 66.2585 µmol/L and 69.4579 µmol/L |  |  |  |  |  |
|  |  | CCCCCCCCCCCCCCCC(=O)OCC(COC(=O)CCCCCCCCCCCCCCC)OC(=O)CCCC(=O)O[C@@H](C(=O)O[C@H]1C[C@@]2(O)[C@@H](OC(=O)c3ccccc3)[C@@H]3[C@]4(OC(C)=O)CO[C@@H]4C[C@H](O)[C@@]3(C)C(=O)[C@H](O)C(=C1C)C2(C)C)[C@@H](NC(=O)OC(C)(C)C)c1ccccc1 [DTX‐5C‐TG] | 1.91 |  |  |  |  |  |  |  |  |  |  | 0.3571 | 0.1569 | 0.2265 | 0.0882 | effective tumor inhibition |
